Results on seven compounds are retold here after PubChem BioAssay (NCI).

Test systems include NCI/ADR-RES ovarian; PC-3 prostate; OVCAR-4 ovarian; OVCAR-3 ovarian; HCT-116 colon; SK-MEL-28 melanoma; MALME-3M melanoma; IGROV1 ovarian; SR leukemia; MCF7 breast; SK-MEL-2 melanoma; MDA-MB-435; MOLT-4 leukemia; HCT-15 colon; NCI-H226 lung; UACC-62 melanoma; K-562 leukemia; RXF 393 renal; TK-10 renal.
Assay in all cases: NCI anticancer screen, dose series, 48 h

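How tested: cells in 96-well plates exposed to compound for 48 hours at five concentrations. The concentration for full growth arrest is given as TGI.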

With `Nn1c(Cc2ccc([N+](=O)[O-])cc2)n[nH]c1=O`, the TGI in the test on NCI/ADR-RES ovarian, with PC-3 prostate, in the test on OVCAR-4 ovarian, in the test with OVCAR-3 ovarian, in the test with HCT-116 colon and in the test with SK-MEL-28 melanoma was above 100 µM in each case. Also, the TGI in the test with MALME-3M melanoma, with IGROV1 ovarian, in the test with SR leukemia, with MCF7 breast, in the test on SK-MEL-2 melanoma and with MDA-MB-435 was above 100 µM each time. Besides, the TGI with MOLT-4 leukemia, with HCT-15 colon, with NCI-H226 lung, in the test on UACC-62 melanoma and in the test with K-562 leukemia was above 100 µM each time.
With `C=CC(Cl)(CBr)CCC(Br)C(C)(C)Cl` (stereo unspecified), the TGI with NCI/ADR-RES ovarian came to 49.8 µM; with PC-3 prostate, 35 µM; with OVCAR-4 ovarian it was 34.1 µM; with OVCAR-3 ovarian, 33.2 µM; in the test with HCT-116 colon, 25.4 µM; with SK-MEL-28 melanoma it was 33.1 µM. Moreover, the TGI in the test on MALME-3M melanoma came out at 35.8 µM; with IGROV1 ovarian, 26.3 µM; with RXF 393 renal, 31.2 µM; in the test on MCF7 breast, 20.1 µM; with SK-MEL-2 melanoma it was 37.5 µM; in the test with MDA-MB-435, 30.3 µM. In addition, the TGI with MOLT-4 leukemia is 21.1 µM; in the test on TK-10 renal it was 38.6 µM; in the test with HCT-15 colon, 36.7 µM; in the test with NCI-H226 lung, above 100 µM; in the test with UACC-62 melanoma it was 30.5 µM; with K-562 leukemia, 72.4 µM.
For `O=c1/c(=C/c2ccc(-c3ccc(Cl)cc3Cl)o2)sc2n1[C@@H](c1ccc(Cl)cc1)C=C(c1cc(F)c(Cl)cc1Cl)N=2`, the TGI with NCI/ADR-RES ovarian, in the test with PC-3 prostate, in the test on OVCAR-4 ovarian, in the test with HCT-116 colon, in the test with SK-MEL-28 melanoma and with MALME-3M melanoma was above 100 µM throughout. The TGI is above 100 µM in the test with IGROV1 ovarian; above 100 µM in the test with RXF 393 renal; above 100 µM in the test on MCF7 breast; above 100 µM in the test on SK-MEL-2 melanoma; above 100 µM in the test with MDA-MB-435; 67.9 µM in the test with MOLT-4 leukemia. The TGI with TK-10 renal, with HCT-15 colon, with NCI-H226 lung, in the test on UACC-62 melanoma and in the test on K-562 leukemia was above 100 µM throughout.
In the case of `OCCNCNc1nc(NCNCCO)nc(N(CNCCO)CNCCO)n1`, the TGI with NCI/ADR-RES ovarian was 54 µM; in the test with PC-3 prostate, 50 µM; with OVCAR-4 ovarian, above 65.4 µM; in the test on OVCAR-3 ovarian, 58.7 µM; in the test with HCT-116 colon, 41.5 µM; in the test on SK-MEL-28 melanoma it was 52.6 µM. Besides, the TGI is 33.2 µM in the test with MALME-3M melanoma; 49.4 µM with IGROV1 ovarian; 31.1 µM in the test on RXF 393 renal; above 78.9 µM in the test on MCF7 breast; 40.9 µM in the test on SK-MEL-2 melanoma; 35.8 µM in the test on MDA-MB-435. For the same compound, the TGI worked out at 67.7 µM with MOLT-4 leukemia; 72.1 µM with TK-10 renal; 61.6 µM in the test on HCT-15 colon; 47.1 µM in the test on NCI-H226 lung; 35.6 µM in the test with UACC-62 melanoma; 50.3 µM in the test with K-562 leukemia.
Turning to `CCOC(=O)NC(Nc1ccc(C(=O)OCC)cc1)(C(F)(F)F)C(F)(F)F`, the TGI with NCI/ADR-RES ovarian, in the test on PC-3 prostate, with OVCAR-4 ovarian, in the test on OVCAR-3 ovarian, in the test on HCT-116 colon and with SK-MEL-28 melanoma was above 100 µM throughout. Besides, the TGI in the test on MALME-3M melanoma, with IGROV1 ovarian, with SR leukemia, with MCF7 breast, in the test on MDA-MB-435 and in the test on MOLT-4 leukemia was above 100 µM throughout. Also, the TGI in the test on TK-10 renal, with HCT-15 colon, in the test on NCI-H226 lung, with UACC-62 melanoma and in the test on K-562 leukemia was above 100 µM each time.
As to `CC(C)NC(=O)CN1CCN(c2c(O)c3c(c(O)c2Cl)C(=O)C=CC3=O)CC1`, the TGI in the test with NCI/ADR-RES ovarian amounted to 10.7 µM; with PC-3 prostate it was 4.75 µM; in the test with OVCAR-4 ovarian, 3.12 µM; in the test on OVCAR-3 ovarian, 2.97 µM; in the test on HCT-116 colon, 2.61 µM; in the test with SK-MEL-28 melanoma it was 3.17 µM. Besides, the TGI came out at 2.7 µM in the test on MALME-3M melanoma; 4.66 µM in the test on IGROV1 ovarian; 2.92 µM in the test on RXF 393 renal; 3.47 µM in the test with MCF7 breast; 3.1 µM in the test with SK-MEL-2 melanoma; 3.38 µM in the test on MDA-MB-435. Also, the TGI was 4.27 µM with TK-10 renal; 3.19 µM with HCT-15 colon; 41.5 µM with NCI-H226 lung; 3.22 µM in the test on UACC-62 melanoma; above 100 µM in the test on K-562 leukemia.
Regarding `COc1ccc2c(c1)CCc1c-2n(CCN2CCCCC2)c2ccc(OC)cc12`, the TGI with NCI/ADR-RES ovarian, in the test with PC-3 prostate, with OVCAR-4 ovarian, with OVCAR-3 ovarian, in the test with HCT-116 colon and in the test on SK-MEL-28 melanoma was above 100 µM throughout. Also, the TGI in the test with MALME-3M melanoma, with IGROV1 ovarian, in the test with SR leukemia, with MCF7 breast, with SK-MEL-2 melanoma and with MDA-MB-435 was above 100 µM in each case. For the same compound, the TGI in the test on TK-10 renal is above 100 µM; in the test with HCT-15 colon, above 100 µM; in the test with NCI-H226 lung, 56.7 µM; in the test with UACC-62 melanoma it was above 100 µM; in the test on K-562 leukemia, above 100 µM.
